Laboratory results: patent US20090123501A1, “INHIBITION OF THE SH2-DOMAIN CONTAINING PROTEIN TYR-PHOSPHATASE, SHP-1, TO ENHANCE VACCINES” (Baylor College of Medicine, priority 2007, published 2009)

What was measured:
[1] = tested on: TRAMP C2 tumors; test: DC vaccination of mice bearing ectopic TRAMP C2 tumors; format: in vivo, C57BL/6 mice; conditions: by viral transduction, pooled across all peptide treatments, vs untreated mice
Protocol: BMDCs were prepared as described above, transduced with either Ad5-SHP-1-shRNA or the control Ad5-scrambled-shRNA at 40,000 viral particles/cell, and pulsed with one of the six peptides listed in Table 1 (OVA, an irrelevant epitope to TRAMP 2 tumors, served as a negative control peptide) or a lysate of TRAMP C2 cells as a positive control antigen. 6-8 week C57BL/6 mice, bearing TRAMP C2 tumors (7×10^6 cells injected s.c. on the dorsal flank three days prior to vaccination), were given a single i.p. vaccination with 2×10^6 treated DCs or left untreated. Tumors were measured (length and width using calipers) every 2-4 days until termination of the study and tumor volume was estimated using the formula: Tumor volume (mm3)=x^2y×0.5236, where x is the smaller tumor dimension, and y is the larger tumor dimension. A-G) TRAMP tumor growth curves for vaccines loaded with the indicated peptides. Error bars represent the standard error of the mean of 5 mice vaccinated in each treatment. […] H-I) ANOVA analysis of peptide function and SHP-1 function. Data represent the averages 10 mice per peptide treatment and 5 mice in the no treatment control group for H) and 35 mice per viral transduction treatment and 5 mice in the no treatment control group for I). The green diamonds represent the mean and 95% confidence interval for each group from the ANOVA. The black line is the mean of means for the study and red symbols indicate significant differences (p<0.05 by Tukey-Kramer HSD multiple comparisons test).
To determine if there was a significant difference between the various peptides used in these DC vaccinations, mice were pooled across viral treatments (Ad5-SHP-1 shRNA or Ad5-scrambled-shRNA) employing the same peptide. An ANOVA for differences in mean tumor volume at day 48 post-vaccination (the time at which the majority of the vaccinated tumor growth curves change slope) and Tukey-Kramer HSD multiple comparisons test.
Next experiments were conducted to determine if vaccines transduced with Ad5-SHP-1-shRNA inhibited tumor growth compared to transduction with Ad5-scrambled-shRNA or no vaccine treatment, irrespective of what peptide was used in the vaccine.

[2] = tested on: total splenocytes; test: T cell subsets in total splenocytes 7 days after DC vaccination, flow cytometry; format: in vivo, C57BL/6 mice; conditions: by viral treatment, peptides pooled
Protocol: To determine the effect of SHP-1 inhibition on the initiation of T cell responses, BMDCs were cultured and CD11c^+ MACS purified as described above. […] Following peptide loading DCs were left untreated or transduced with one of 3 different adenoviral vectors: 1) Ad5-SHP-1-shRNA; 2) Ad5-scrambled-shRNA; or 3) Ad5-CMV-empty, an adenovirus carrying a CMV promoter expression vector but no insert. […] Using all combinations of peptide and virus treatment yielded 9 experimental vaccines and one no vaccine control. Vaccines (2×10^6 DCs) were injected i.p. into wt C57BL/6 mice. Seven days following vaccination mice were sacrificed and total splenocytes were analyzed by multi-color flow cytometry for the expression of several T cell subsets. CD3^+ CD8^+IFNγ^+ cells were characterized as CTL effectors, CD3^+ CD4^+IFNγ^+ cells were characterized as Th1 helper T cells, and CD4^+ FOXP3^+ cells were characterized as Treg cells. Flow cytometry data were analyzed by one-way analysis of variance (ANOVA) and Tukey-Kramer HSD multiple comparisons test for percentage of cells falling within each population following treatment. Cells were stained with anti-CD3, anti-CD8 and anti IFNγ to differentiate CD8^+ effectors and CD4^+ Th1 T cell skewing or anti-CD4 and anti-FOXP3 to determine Tregs. To determine if there was a peptide specific effects between the 3 different tumor antigens, viral treatments were pooled for each peptide exposure. Data represent the averages 6 mice per peptide treatment group and 2 mice in the no treatment control group. No significant differences were seen between peptides in the induction of Tregs or CD8^+ effector cells.
(§1) Following peptide loading DCs were left untreated or transduced with one of 3 different adenoviral vectors: 1) Ad5-SHP-1-shRNA; 2) Ad5-scrambled-shRNA; or 3) Ad5-CMV-empty, an adenovirus carrying a CMV promoter expression vector but no insert. Vaccines were injected i.p. into wt C57BL/6 mice and T cell skewing analyzed 7 days later by flow cytometry from total splenocytes. Cells were stained with anti-CD3, anti-CD8 and anti IFNγ for effector and Th1 cells or anti-CD4 and anti-FOXP3 for Tregs. For the peptide specific analysis viral treatments were pooled for each peptide exposure. Data represent the averages 6 mice per peptide treatment and two mice in the no treatment control group. The green diamonds represent the mean and 95% confidence interval for each group from the ANOVA. The black line is the mean of means for the study and red asterisk (*) indicates significant differences (p<0.05 by Tukey-Kramer HSD multiple comparisons test).
as §1, with “the SHP-1” for “the peptide”, “each viral treatment.” for “each peptide exposure.”, “and 2” for “and two”, “ANOVA. […]” for “ANOVA. The black line is the mean of means for the study and red asterisk (*) indicates significant differences (p<0.05 by Tukey-Kramer HSD multiple comparisons test).”

[3] = 2×10^6 DCs i.p., day 7, vs no vaccine control

CACCGGAGCATGACACAGCAGAATACGAATATTCTGCTGTGTCATGCTCC (chemistry not given here) [Ad5-SHP-1-shRNA]
TRAMP C2 tumor volume (ANOVA) [1]: significantly lower tumor volumes | proportion of CD4+ Th1 skewed T cells (CD3+CD4+IFNγ+) [2, 3]: significantly higher proportion | proportion of CD8+ effector cells (CD3+CD8+IFNγ+) [2, 3]: significantly higher proportion | percentage of Tregs (CD4+FOXP3+) ([2]; day 7, vs empty viral control): significantly decreased the percentage of Tregs
